The values below come from patent publication US20240424113A1, “CONJUGATES COMPRISING ANTIFUNGALS AND HEAT SHOCK PROTEIN 90 (HSP90) INHIBITORS AND METHODS OF USE THEREOF” (Bright Angel Therapeutics Inc., priority 2021, published 2024).

In brackets after ≈: the same amount, converted by molar mass. A value given as a limit tells only on which side of the number the result lay.

The target of data set [1] is Hsp90 Nuclear Binding Domain (NBD) (Candida albicans (strain SC5314 / ATCC MYA-2876) (Yeast), UniProt P46598). Kind of data set: Surface Plasmon Resonance (SPR) binding, C. albicans Hsp90 NBD. The note with it: biotinylated Hsp90 NBD on streptavidin chip, 25° C., 1:1 binding model. The gist of the method:
(§1)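 Biacore S200 at 25° C; AviTag-biotinylated recombinant Hsp90 NBD captured on streptavidin chip at 2000-2500 RU. Compound dilution series run in HBS-P pH 7.4 with 2% DMSO at 40 μL/min, 60 s association and 600 s dissociation. Sensorgrams fitted to a 1:1 binding model.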

In data set [2] the target is Hsp90 Nuclear Binding Domain (NBD) (Aspergillus fumigatus, UniProt P40292). Description: Surface Plasmon Resonance (SPR) binding, A. fumigatus Hsp90 NBD. The note with it: biotinylated Hsp90 NBD on streptavidin chip, 25° C., 1:1 binding model; NB undefined. Summed up: as §1
A further data set has as its system CaCl2. Kind of data set: Antifungal sensitivity testing (broth microdilution MIC). It counts as cell-based. The note with it: 96-well broth microdilution. Summed up: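 Broth microdilution MIC per a modified published protocol; compounds dissolved in DMSO, fluconazole in water; duplicates in at least two independent experiments. Fungicidal activity checked by spotting MIC-plate cultures onto YPD agar, read after 24 h at 30° C.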
For orientation: Broth dilution looks for growth in wells or tubes with falling amounts of substance.

Another data set concerns HepG2 cells. Description: Mammalian cell toxicity (Cell Titer-Glo). It counts as cell-based. How it is done:
Mammalian Cell Toxicity. HepG2 cells were seeded overnight at 500 cells/well in 384-well plate, then incubated with compounds (10-point concentration titration) for 48 h. Cell Titer-Glo® reagent ([…]) was added to each well and after 10-minute incubation at room temperature the luminescent signal was measured using an Envision plate reader (Perkin Elmer).
(ATP-based viability assays read luminescence as a measure of living cells.)

Chain of Hsp90 Nuclear Binding Domain (NBD) (Aspergillus fumigatus, UniProt P40292) (P40292 whole entry, looked up, the tested form may be a part): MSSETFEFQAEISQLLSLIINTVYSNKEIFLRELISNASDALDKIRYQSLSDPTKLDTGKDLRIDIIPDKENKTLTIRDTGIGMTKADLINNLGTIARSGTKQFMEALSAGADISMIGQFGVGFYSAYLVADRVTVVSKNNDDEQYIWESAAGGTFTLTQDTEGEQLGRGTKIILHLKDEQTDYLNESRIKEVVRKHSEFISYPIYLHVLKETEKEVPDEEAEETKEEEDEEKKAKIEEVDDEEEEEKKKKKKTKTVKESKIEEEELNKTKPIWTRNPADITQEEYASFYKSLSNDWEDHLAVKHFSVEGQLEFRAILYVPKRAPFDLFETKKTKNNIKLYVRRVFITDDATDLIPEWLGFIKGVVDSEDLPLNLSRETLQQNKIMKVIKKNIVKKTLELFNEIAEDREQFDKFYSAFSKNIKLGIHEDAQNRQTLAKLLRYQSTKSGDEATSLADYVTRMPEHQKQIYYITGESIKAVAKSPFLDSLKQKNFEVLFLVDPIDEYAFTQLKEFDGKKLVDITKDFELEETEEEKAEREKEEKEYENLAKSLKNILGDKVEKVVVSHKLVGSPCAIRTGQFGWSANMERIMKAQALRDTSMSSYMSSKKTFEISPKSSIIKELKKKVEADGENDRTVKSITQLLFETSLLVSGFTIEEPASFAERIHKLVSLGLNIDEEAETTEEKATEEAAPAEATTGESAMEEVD
Chain of Hsp90 Nuclear Binding Domain (NBD) (Candida albicans (strain SC5314 / ATCC MYA-2876) (Yeast), UniProt P46598) (P46598 1-218 limits assumed): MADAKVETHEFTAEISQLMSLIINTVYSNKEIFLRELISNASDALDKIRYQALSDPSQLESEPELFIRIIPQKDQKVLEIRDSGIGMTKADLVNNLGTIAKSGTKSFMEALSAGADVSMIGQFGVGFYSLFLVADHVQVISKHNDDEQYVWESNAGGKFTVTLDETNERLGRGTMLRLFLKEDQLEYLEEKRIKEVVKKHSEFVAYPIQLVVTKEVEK

A word on the Kd: it is the constant that tells how readily two partners part at equilibrium. Lower therefore signals tighter binding. Broadly, the MIC50 is an inhibitory concentration at the 50% level, which refers to growth in some studies and to a panel of isolates in others. A low value points to greater potency. On to `Nc1nc2sc(C(=O)NC3CCN(C[C@](O)(Cn4cncn4)c4ccc(F)cc4F)CC3)cc2n(-c2ccc3c(c2)N(c2ccccc2)CCC3)c1=O` [Compound I-21, (S)-3-amino-N-(1-(2-(2,4-difluorophenyl)-2-hydroxy-3-(1H-1,2,4-triazol-1-yl)propyl)piperidin-4-yl)-2-oxo-1-(1-phenyl-1,2,3,4-tetrahydroquinolin-7-yl)-1,2-dihydrothieno[2,3-b]pyrazine-6-carboxamide], for which the results for the Kd in data set [1] and in data set [2] were 6.7 nM and 37.3 nM, respectively. Moreover, the results for the MIC50 with CaCl2 (Table 4) and in the data set with CaCl2 (Table 6) were 0.085 µM (≈ 0.0627 µg/mL) and 0.09 µM (≈ 0.0664 µg/mL), respectively. For the same molecule, the “HepG2 MIC50” value is >50 µM in the data set on HepG2 cells (Table 5, 48 h incubation) and >50 µM with HepG2 cells (Table 6, 48 h incubation).

`Nc1nc2sc(C(=O)NC3CCN(C[C@](O)(Cn4cncn4)c4ccc(F)cc4F)CC3)cc2n(-c2ccc3ccn(-c4ccccc4)c3c2)c1=O` [Compound I-23, (S)-3-amino-N-(1-(2-(2,4-difluorophenyl)-2-hydroxy-3-(1H-1,2,4-triazol-1-yl)propyl)piperidin-4-yl)-2-oxo-1-(1-phenyl-1H-indol-6-yl)-1,2-dihydrothieno[2,3-b]pyrazine-6-carboxamide]: the Kd is 28.6 nM in data set [1] and 46 nM in data set [2]. Also, the MIC50 against CaCl2 (Table 4) and against CaCl2 (Table 6) was 0.35 µM (≈ 0.253 µg/mL) in each case. For the same molecule, the “HepG2 MIC50” value is >50 µM in the data set with HepG2 cells (Table 5, 48 h incubation) and >50 µM in the data set with HepG2 cells (Table 6, 48 h incubation).

Turning to `Nc1nc2sc(C(=O)NC[C@H]3CO[C@](Cn4cncn4)(c4ccc(F)cc4F)C3)cc2n(-c2ccc3c(c2)N(c2ccccc2)CCO3)c1=O` [Compound I-27, N-(((3S,5S)-5-((1H-1,2,4-triazol-1-yl)methyl)-5-(2,4-difluorophenyl)tetrahydrofuran-3-yl)methyl)-3-amino-2-oxo-1-(4-phenyl-3,4-dihydro-2H-benzo[b][1,4]oxazin-6-yl)-1,2-dihydrothieno[2,3-b]pyrazine-6-carboxamide], the Kd in data set [1] turned out to be 9.2 nM; in data set [2], 13.4 nM. In addition, the MIC50 in the data set on CaCl2 (Table 4) and against CaCl2 (Table 6) was 2.5 µM (≈ 1.74 µg/mL) throughout. Moreover, the “HepG2 MIC50” value in the data set on HepG2 cells (Table 6, 48 h incubation) was >10 µM.

For `CC1(NC(=O)c2cc3c(nc(N)c(=O)n3-c3ccc4c(c3)N(c3ccccc3)CCO4)s2)CCN(CC(O)(Cn2cncn2)c2ccc(F)cc2F)CC1` (centres unmarked) [Compound I-31, 3-amino-N-(1-(2-(2,4-difluorophenyl)-2-hydroxy-3-(1H-1,2,4-triazol-1-yl)propyl)-4-methylpiperidin-4-yl)-2-oxo-1-(4-phenyl-3,4-dihydro-2H-benzo[b][1,4]oxazin-6-yl)-1,2-dihydrothieno[2,3-b]pyrazine-6-carboxamide], the Kd in data set [1] is 0.3 nM; in data set [2], 2.3 nM. In addition, the MIC50 against CaCl2 (Table 4) and in the data set on CaCl2 (Table 6) was 1 µM (≈ 0.754 µg/mL) throughout. Besides, the “HepG2 MIC50” value with HepG2 cells (Table 5, 48 h incubation) came to 4.6 µM; with HepG2 cells (Table 6, 48 h incubation), 4.6 µM.

Regarding `Nc1nc2sc(C(=O)NC3CCN(CC4COC(Cn5cncn5)(c5ccc(F)cc5F)C4)CC3)cc2n(-c2ccc3c(c2)N(c2ccccc2)CCO3)c1=O` (centres unmarked) [Compound I-32, N-(1-((5-((1H-1,2,4-triazol-1-yl)methyl)-5-(2,4-difluorophenyl)tetrahydrofuran-3-yl)methyl)piperidin-4-yl)-3-amino-2-oxo-1-(4-phenyl-3,4-dihydro-2H-benzo[b][1,4]oxazin-6-yl)-1,2-dihydrothieno[2,3-b]pyrazine-6-carboxamide], the Kd turned out to be 3.6 nM in data set [1] and 50.5 nM in data set [2]. Further, the MIC50 in the data set on CaCl2 (Table 4) and against CaCl2 (Table 6) was 2.5 µM (≈ 1.95 µg/mL) each time. Moreover, in the data set on HepG2 cells (Table 6, 48 h incubation), the “HepG2 MIC50” value was determined as 8.2 µM.

In the case of `Nc1nc2sc(C(=O)N[C@@H]3CCN(CCC(O)(Cn4cncn4)c4ccc(F)cc4F)C3)cc2n(-c2ccc3c(c2)N(c2ccccc2)CCO3)c1=O` (stereo partly drawn) [Compound I-36, 3-amino-N-((3R)-1-(3-(2,4-difluorophenyl)-3-hydroxy-4-(1H-1,2,4-triazol-1-yl)butyl)pyrrolidin-3-yl)-2-oxo-1-(4-phenyl-3,4-dihydro-2H-benzo[b][1,4]oxazin-6-yl)-1,2-dihydrothieno[2,3-b]pyrazine-6-carboxamide], the values for the equilibrium dissociation constant (Kd) in data set [1] and in data set [2] were 2.1 nM and 3.7 nM, respectively. Moreover, the MIC50 with CaCl2 (Table 4) and in the data set with CaCl2 (Table 6) was 8 µM (≈ 5.92 µg/mL) in each case. The “HepG2 MIC50” value in the data set on HepG2 cells (Table 6, 48 h incubation) worked out at 1.9 µM.

`Nc1nc2sc(CNC3CCN(CC(O)(Cn4cncn4)c4ccc(F)cc4F)CC3)cc2n(-c2ccc3c(c2)N(c2ccccc2)CCO3)c1=O` (centres unmarked) [Compound I-47, 3-amino-6-(((1-(2-(2,4-difluorophenyl)-2-hydroxy-3-(1H-1,2,4-triazol-1-yl)propyl)piperidin-4-yl)amino)methyl)-1-(4-phenyl-3,4-dihydro-2H-benzo[b][1,4]oxazin-6-yl)thieno[2,3-b]pyrazin-2(1H)-one]: the Kd in data set [1] was found to be 289 nM; in data set [2], 550 nM. Besides, the MIC50 against CaCl2 (Table 4) and against CaCl2 (Table 6) was 1 µM (≈ 0.726 µg/mL) in each case. Further, the “HepG2 MIC50” value in the data set on HepG2 cells (Table 5, 48 h incubation) is 4.4 µM; in the data set with HepG2 cells (Table 6, 48 h incubation), 4.4 µM.

For the molecule `CC1(NC(=O)c2cc3c(nc(N)c(=O)n3-c3ccc4c(c3)N(c3ccccc3)CCO4)s2)CCN(C[C@](O)(Cn2cncn2)c2ccc(F)cc2F)CC1` [Compound I-53, (S)-3-amino-N-(1-(2-(2,4-difluorophenyl)-2-hydroxy-3-(1H-1,2,4-triazol-1-yl)propyl)-4-methylpiperidin-4-yl)-2-oxo-1-(4-phenyl-3,4-dihydro-2H-benzo[b][1,4]oxazin-6-yl)-1,2-dihydrothieno[2,3-b]pyrazine-6-carboxamide], the Kd in data set [1] amounted to 1.3 nM; in data set [2], 23.6 nM. In addition, the MIC50 in the data set with CaCl2 (Table 4) and against CaCl2 (Table 6) was 1.5 µM (≈ 1.13 µg/mL) throughout. Moreover, the “HepG2 MIC50” value was 4 µM with HepG2 cells (Table 5, 48 h incubation) and 4 µM with HepG2 cells (Table 6, 48 h incubation).

`Nc1nc2sc(-c3noc(C(=O)NN4CCN(CC(O)(Cn5cncn5)c5ccc(F)cc5F)CC4)n3)cc2n(-c2ccc3c(c2)N(c2ccccc2)CCO3)c1=O` (centres unmarked) [Compound I-54, 3-(3-amino-2-oxo-1-(4-phenyl-3,4-dihydro-2H-benzo[b][1,4]oxazin-6-yl)-1,2-dihydrothieno[2,3-b]pyrazin-6-yl)-N-(4-(2-(2,4-difluorophenyl)-2-hydroxy-3-(1H-1,2,4-triazol-1-yl)propyl)piperazin-1-yl)-1,2,4-oxadiazole-5-carboxamide]: the Kd in data set [1] stood at 73.5 nM; in data set [2], 339 nM. The MIC50 against CaCl2 (Table 4) and in the data set with CaCl2 (Table 6) was 0.6 µM (≈ 0.485 µg/mL) throughout. Further, the “HepG2 MIC50” value in the data set on HepG2 cells (Table 5, 48 h incubation) is >10 µM; in the data set with HepG2 cells (Table 6, 48 h incubation) it was >10 µM.

Take `COC(=O)c1c(C(=O)NC2CCN(CC(O)(Cn3cncn3)c3ccc(F)cc3F)CC2)sc2nc(N)c(=O)n(-c3ccc4c(c3)N(c3ccccc3)CCO4)c12` (centres unmarked) [Compound I-55, methyl 3-amino-6-((1-(2-(2,4-difluorophenyl)-2-hydroxy-3-(1H-1,2,4-triazol-1-yl)propyl)piperidin-4-yl)carbamoyl)-2-oxo-1-(4-phenyl-3,4-dihydro-2H-benzo[b][1,4]oxazin-6-yl)-1,2-dihydrothieno[2,3-b]pyrazine-7-carboxylate]: the Kd in data set [1] stood at 318 nM; in data set [2] it was 314 nM. For the same molecule, the MIC50 in the data set with CaCl2 (Table 4) and against CaCl2 (Table 6) was 9 µM (≈ 7.18 µg/mL) throughout. In the data set with HepG2 cells (Table 6, 48 h incubation), the “HepG2 MIC50” value was >10 µM.

On to `CC(O)c1c(C(=O)NC2CCN(CC(O)(Cn3cncn3)c3ccc(F)cc3F)CC2)sc2nc(N)c(=O)n(-c3ccc4ccn(-c5ccccc5)c4c3)c12` (centres unmarked) [Compound I-56, 3-amino-N-(1-(2-(2,4-difluorophenyl)-2-hydroxy-3-(1H-1,2,4-triazol-1-yl)propyl)piperidin-4-yl)-7-(1-hydroxyethyl)-2-oxo-1-(1-phenyl-1H-indol-6-yl)-1,2-dihydrothieno[2,3-b]pyrazine-6-carboxamide], for which the dissociation constant (Kd) in data set [1] was found to be 64.6 nM; in data set [2], 229 nM. Besides, the MIC50 with CaCl2 (Table 4) and against CaCl2 (Table 6) was 3 µM (≈ 2.3 µg/mL) in each case. Further, the “HepG2 MIC50” value with HepG2 cells (Table 6, 48 h incubation) is >10 µM.

For `Nc1nc2sc(CNC3CCN(C[C@@](O)(Cn4cncn4)c4ccc(F)cc4F)CC3)cc2n(-c2ccc3c(c2)N(c2ccccc2)CCO3)c1=O` [Compound I-62, (R)-3-amino-6-(((1-(2-(2,4-difluorophenyl)-2-hydroxy-3-(1H-1,2,4-triazol-1-yl)propyl)piperidin-4-yl)amino)methyl)-1-(4-phenyl-3,4-dihydro-2H-benzo[b][1,4]oxazin-6-yl)thieno[2,3-b]pyrazin-2(1H)-one], the figures for the Kd in data set [1] and in data set [2] were 234 nM and 423 nM, respectively. Besides, the MIC50 in the data set with CaCl2 (Table 4) and with CaCl2 (Table 6) was 3 µM (≈ 2.18 µg/mL) throughout. For the same molecule, in the data set on HepG2 cells (Table 6, 48 h incubation), the “HepG2 MIC50” value stood at 10.6 µM.

As to `Nc1nc2sc(C(=O)NC3CCN(CCCC(O)(Cn4cncn4)c4ccc(F)cc4F)CC3)cc2n(-c2ccc3c(c2)N(c2ccccc2)CCO3)c1=O` (centres unmarked) [Compound I-64, 3-amino-N-(1-(4-(2,4-difluorophenyl)-4-hydroxy-5-(1H-1,2,4-triazol-1-yl)pentyl)piperidin-4-yl)-2-oxo-1-(4-phenyl-3,4-dihydro-2H-benzo[b][1,4]oxazin-6-yl)-1,2-dihydrothieno[2,3-b]pyrazine-6-carboxamide], the Kd in data set [1] was 0.9 nM; in data set [2], 19.3 nM. In addition, the MIC50 against CaCl2 (Table 4) stood at 3.12 µM (≈ 2.4 µg/mL); in the data set on CaCl2 (Table 6) it was 3.13 µM (≈ 2.4 µg/mL). In addition, in the data set on HepG2 cells (Table 6, 48 h incubation), the “HepG2 MIC50” value amounted to 2 µM.
